The source of these data is article PMC5707067, “Farnesyl phenolic enantiomers as natural MTH1 inhibitors from Ganoderma sinense” (Oncotarget, 2017).

For assay [1], the system named is human colorectal carcinoma cells (SW620). As to the kind of experiment: CCK8 cytotoxicity assay, SW620. To be noted: Homo sapiens, SW-620; CCK8, 48 h, carcinoma cell line. Type of assay: cell-based. From the text: (§1) The growth inhibitory effects of the isolated farnesyl phenolic compounds (1–8) against carcinoma cell lines [human osteosarcoma cells (U2OS), human colorectal carcinoma cells (SW620), human ES-2 ovarian carcinoma cells (ES-2)] and normal tissue cell lines [human hepatic cells (Lo2), African green monkey kidney vero cells (Vero)] were further investigated using CCK8 assay method (Table 3).
(§2) Carcinoma cell lines [human osteosarcoma cells (U2OS), human colorectal carcinoma cells (SW620), human ES-2 ovarian carcinoma cells (ES-2)] and normal tissue cell lines [human hepatic cells (Lo2), African green monkey kidney Vero cells (Vero)] The U2OS, SW620, ES-2, Lo2 and Vero were obtained from ATCC (Manassas, VA, USA). The SW620 and Vero cells were cultured in Roswell Park Memorial Institute medium (RPMI), with 10% fetal bovine serum (Hyclone) and 1% penicillin-streptomycin (Sigma). Lo2, U2OS and ES-2 cells were grown in Dulbecco's modified eagle medium (DMEM), with 10% fetal bovine serum (Hyclone) and 1% penicillin-streptomycin (Sigma). All of these cells were cultured at 37°C in a humidified atmosphere with 5% CO2. For CCK8 assay cytotoxicity evaluation of compounds, all cells were separately plated at a density of 1 × 10^4 cells/well in a 96 well plate. Cells were cultivated at 37°C in 5% CO2 atmosphere for 24 h, then medium in the wells was replaced with fresh medium containing compounds which were diluted in 8 dilution steps covering the range from 200 μM to 1.5625 μM. And DMSO was used as negative control. After 48 h incubation, 10 μL of CCK8 solution was added to each well. After 30 min, the optical density (OD) of each well was measured at wavelength of 450 nm on spectrophotometer. Data were corrected for background (no-cell control) and expressed as a percentage of the value for untreated cells. The IC50 values of the isolated compounds were derived from the mean OD values of the triplicate tests versus the drug concentration curves.
(In general: Formazan colour is commonly taken as a measure of viable cells.)

In assay [2] the test system is human ES-2 ovarian carcinoma cells (ES-2). Put plainly: CCK8 cytotoxicity assay, ES-2. As to conditions: Homo sapiens, Ovarian carcinoma cell; CCK8, 48 h, carcinoma cell line. Type of assay: cell-based.
From the text: as §1, §2

A further assay concerns SW620 cells. Put plainly: Apoptosis analysis (Annexin V/PI flow cytometry). To be noted: 24 hours, control group 12.03%. Type of assay: cell-based, human. On the procedure: The apoptosis of cells induced by compounds was further investigated. SW620 cells were pretreated with series concentration of compound 1 for 24 hours. The number of apoptosis cells was quantified by flow cytometry.
Figure 5 Compound 1 induced DNA damage and hindered the replication of DNA in cancer cells causing cell apoptosis (A) SW620 cells were treated with 0, 50 or 150 μM of compound 1 and then processed for FACS by using Annexin V/propidium iodide staining. (B, C) Immunofluorescence staining analysis of EDU^+ and quantification of EDU^+ in SW620 cells treated with 0, 50 or 150 μM of compound 1. Stained graphs were observed through a fluorescence microscope (× 200 magnification). Bar = 20 μm. Data are shown as mean ± s.d. (n = 3). (D, E, F) Immunofluorescence staining analysis of 53BP1 and quantification of 53BP1 foci formation in SW620 treated for 24 h with 50 μM of compound 1. It was observed through a confocal microscope (× 400 magnification). Bar = 50 μm Data are shown as mean ± s.d. (n = 3). […]
Apoptotic cells were staining with Annexin-V-FITC and Propidium Iodide (PI) (Annexin V-FITC/PI double staining cell apoptosis detection kit) following the manufacturer's protocol. Fluorescence was recorded by flow cytometry using the FACSort (BD Bio sciences).

A word on the IC50: it is the concentration needed to halve the response being measured. Low readings indicate inhibition by little substance, high ones a need for much substance. For `CO[C@]1(c2cc(O)cc(O)c2)C=C(CCCC(CO)CC/C=C(\C)COC(=O)/C=C/c2ccc(O)cc2)C(=O)O1` (stereo partly drawn) [Compound 1, (5R)-3-{9-[(E)-coumaroyl]-4-hydroxymethyl-8-methyl-7-nonene}-5-(3,5-dihydroxyphenyl)-5-methoxy-2(5H)-furanone], the IC50 in assay [1] was determined as 45 ± 1.23 µM; in assay [2] it was 55.5 ± 1.08 µM. In addition, the “SW620 cells apoptotic death” value in the assay on SW620 cells (50 μM) worked out at 45.09%; in the assay on SW620 cells (150 μM), 91.11%.
